Test: Comparison of radical quenchers: impurities on storage at 40° C. and 75% relative humidity, uncoated canisters
Type: physicochemical
Settings: for effectiveness in reducing degradation of the budesonide formulations: Tables X-XII, 40° C./75% relative humidity
Text: To compare the effectiveness of various radical quenchers in preventing degradation of budesonide formulations, formulations containing budesonide, HFA-134a, ethanol, and a radical quencher were made in uncoated canisters using the steps described in Example I. The compositions of the formulations are shown in Table IX. Formulations were made containing each radical quencher with and without 3% aqueous hydrogen peroxide. The hydrogen peroxide was included in some formulations to challenge the radical quencher.
The initial impurities in each formulation were measured, and the formulations were stored at 40° C. and 75% relative humidity. Impurities were measured again after 4 weeks and after 3 months. For selected formulations, impurities were also measured after 11 months.

Row | effectiveness in reducing degradation of the budesonide formulations | physical stability of formulations including the radical quencher (clumping) (budesonide/ethanol/HFA-134a formulations) | Compound
1 | very effective | tended to form clumps of solid matter | CCCCCCCCCCCCCCCC(=O)OC[C@H](O)[C@H]1OC(=O)C(O)=C1O [ascorbyl palmitate]
2 | effectively reduced degradation |  | Vitamin E

Row | Compound | effectiveness in reducing degradation of the budesonide formulations | physical stability of formulations including the radical quencher (clumping) (budesonide/ethanol/HFA-134a formulations)
3 | COc1ccc(O)c(C(C)(C)C)c1 [butylated hydroxyanisole (BHA), butylated hydroxyanisole] | very effective | 
